Results taken from PubChem BioAssay AID1963842 (Molecular Pharmacology Branch, DTP, NCI, 2024).

Test system: 677734-321-R-J1-PDC complex spheroid viability
Assay: Anticancer human tumor 677734-321-R-J1-PDC patient-derived soft tissue sarcoma cell line growth inhibition [POLQ]
Conditions: for IC50: curve of first compound; for viability, T/C: stronger effect = lower value; active = viability on the fitted dose curve at most 10% of control; inactive = the rest
Procedure, shortened: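 Growth inhibition in 3D: complex spheroids (tumor PDC, HUVEC, MSC) treated with POLQ inhibitor combinations; where Cmax unknown, highest tested concentration 10 microM, except SN-38 at 1 microM.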

[1] = second compound 0.0316 µM, first compound 0.0316 µM
[2] = second compound 0.0316 µM, first compound 0.1 µM
[3] = second compound 0.0316 µM, first compound 0.316 µM
[4] = second compound 0.0316 µM, first compound 1 µM
[5] = second compound 0.0316 µM, first compound 3.16 µM
[6] = second compound 0.0316 µM, first compound 10 µM
[7] = second compound 0.1 µM, first compound 0.0316 µM
[8] = second compound 0.1 µM, first compound 0.1 µM
[9] = second compound 0.1 µM, first compound 0.316 µM
[10] = second compound 0.1 µM, first compound 1 µM
[11] = second compound 0.1 µM, first compound 3.16 µM
[12] = second compound 0.1 µM, first compound 10 µM
[13] = second compound 0.316 µM, first compound 0.0316 µM
[14] = second compound 0.316 µM, first compound 0.1 µM
[15] = second compound 0.316 µM, first compound 0.316 µM
[16] = second compound 0.316 µM, first compound 1 µM
[17] = second compound 0.316 µM, first compound 3.16 µM
[18] = second compound 0.316 µM, first compound 10 µM
[19] = second compound 1 µM, first compound 0.0316 µM
[20] = second compound 1 µM, first compound 0.1 µM
[21] = second compound 1 µM, first compound 0.316 µM
[22] = second compound 1 µM, first compound 1 µM
[23] = second compound 1 µM, first compound 3.16 µM
[24] = second compound 1 µM, first compound 10 µM
[25] = second compound 3.16 µM, first compound 0.0316 µM
[26] = second compound 3.16 µM, first compound 0.1 µM
[27] = second compound 3.16 µM, first compound 0.316 µM
[28] = second compound 3.16 µM, first compound 1 µM
[29] = second compound 3.16 µM, first compound 3.16 µM
[30] = second compound 3.16 µM, first compound 10 µM
[31] = second compound 10 µM, first compound 0.0316 µM
[32] = second compound 10 µM, first compound 0.1 µM
[33] = second compound 10 µM, first compound 0.316 µM
[34] = second compound 10 µM, first compound 1 µM
[35] = second compound 10 µM, first compound 3.16 µM
[36] = second compound 10 µM, first compound 10 µM
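Also: spheroids exposed to compounds for one week.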
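For viability, T/C in this document: 100% = vehicle DMSO treated spheroids.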

CC(C)n1c(=O)n(C)c2cnc3cc(F)c(-c4ccc(OCCCN5CCCCC5)nc4)cc3c21 + COC1C(OC(N)=O)C(O)C(Oc2ccc3c(O)c(NC(=O)c4ccc(O)c(CC=C(C)C)c4)c(=O)oc3c2C)OC1(C)C
> 10 µM: IC50 (second compound 0.0316 µM) | IC50 (second compound 0.1 µM) | IC50 (second compound 0.316 µM) | IC50 (second compound 1 µM) | IC50 (second compound 3.16 µM) | IC50 (second compound 10 µM)
inactive: viability, T/C [1] 117% | viability, T/C [2] 104% | viability, T/C [3] 109% | viability, T/C [4] 107% | viability, T/C [5] 111% | viability, T/C [6] 110% | viability, T/C [7] 104% | viability, T/C [8] 109% | viability, T/C [9] 106% | viability, T/C [10] 111% | viability, T/C [11] 117% | viability, T/C [12] 101% | viability, T/C [13] 108% | viability, T/C [14] 107% | viability, T/C [15] 106% | viability, T/C [16] 113% | viability, T/C [17] 112% | viability, T/C [18] 106% | viability, T/C [19] 108% | viability, T/C [20] 102% | viability, T/C [21] 113% | viability, T/C [22] 113% | viability, T/C [23] 109% | viability, T/C [24] 107% | viability, T/C [25] 107% | viability, T/C [26] 107% | viability, T/C [27] 106% | viability, T/C [28] 115% | viability, T/C [29] 104% | viability, T/C [30] 107% | viability, T/C [31] 109% | viability, T/C [32] 106% | viability, T/C [33] 111% | viability, T/C [34] 113% | viability, T/C [35] 106% | viability, T/C [36] 102%

CC1COCCN1c1cc(-c2ccnn2C)c2ccnc(-c3ccn[nH]3)c2n1 (stereo unspecified) + COC1C(OC(N)=O)C(O)C(Oc2ccc3c(O)c(NC(=O)c4ccc(O)c(CC=C(C)C)c4)c(=O)oc3c2C)OC1(C)C
inactive: viability, T/C [1] 98.5% | viability, T/C [2] 65.1% | viability, T/C [3] 23.7% | viability, T/C [4] 15.9% | viability, T/C [5] 6.88% | viability, T/C [6] 15.2% | viability, T/C [7] 97.5% | viability, T/C [8] 61.8% | viability, T/C [9] 25.2% | viability, T/C [10] 16.6% | viability, T/C [11] 8.53% | viability, T/C [12] 17.1% | viability, T/C [13] 95.8% | viability, T/C [14] 61.8% | viability, T/C [15] 22.7% | viability, T/C [16] 19.8% | viability, T/C [17] 6.32% | viability, T/C [18] 15.3% | viability, T/C [19] 110% | viability, T/C [20] 62.7% | viability, T/C [21] 23.8% | viability, T/C [22] 16.6% | viability, T/C [23] 7.91% | viability, T/C [24] 16.6% | viability, T/C [25] 102% | viability, T/C [26] 61.2% | viability, T/C [27] 26.3% | viability, T/C [28] 16.6% | viability, T/C [29] 6.66% | viability, T/C [30] 14.4% | viability, T/C [31] 98.1% | viability, T/C [32] 57.9% | viability, T/C [33] 20.1% | viability, T/C [34] 17.1% | viability, T/C [35] 8.68% | viability, T/C [36] 16.7%
0.142 µM: IC50 (second compound 0.316 µM)
0.153 µM: IC50 (second compound 0.0316 µM)
0.146 µM: IC50 (second compound 1 µM)
0.127 µM: IC50 (second compound 10 µM)
0.145 µM: IC50 (second compound 0.1 µM) | IC50 (second compound 3.16 µM)

CC1COCCN1c1cc(C2(S(C)(=N)=O)CC2)nc(-c2ccnc3[nH]ccc23)n1 (stereo unspecified) + COC1C(OC(N)=O)C(O)C(Oc2ccc3c(O)c(NC(=O)c4ccc(O)c(CC=C(C)C)c4)c(=O)oc3c2C)OC1(C)C
inactive: viability, T/C [1] 109% | viability, T/C [2] 117% | viability, T/C [3] 95.5% | viability, T/C [4] 101% | viability, T/C [5] 62.4% | viability, T/C [6] 39.5% | viability, T/C [7] 110% | viability, T/C [8] 113% | viability, T/C [9] 106% | viability, T/C [10] 93% | viability, T/C [11] 58.7% | viability, T/C [12] 24.3% | viability, T/C [13] 109% | viability, T/C [14] 104% | viability, T/C [15] 104% | viability, T/C [16] 91.1% | viability, T/C [17] 49.5% | viability, T/C [18] 18.5% | viability, T/C [19] 112% | viability, T/C [20] 98.7% | viability, T/C [21] 100% | viability, T/C [22] 92.2% | viability, T/C [23] 62.3% | viability, T/C [24] 24.3% | viability, T/C [25] 109% | viability, T/C [26] 104% | viability, T/C [27] 99.6% | viability, T/C [28] 98.8% | viability, T/C [29] 55.5% | viability, T/C [30] 22.9% | viability, T/C [31] 108% | viability, T/C [32] 107% | viability, T/C [33] 106% | viability, T/C [34] 92% | viability, T/C [35] 56% | viability, T/C [36] 21.6%
5.96 µM: IC50 (second compound 0.0316 µM)
4.67 µM: IC50 (second compound 1 µM)
3.12 µM: IC50 (second compound 0.316 µM)
4.24 µM: IC50 (second compound 0.1 µM)
3.85 µM: IC50 (second compound 3.16 µM) | IC50 (second compound 10 µM)
